Experimental findings from ChEMBL document CHEMBL1145584, “Cycloalkyl-substituted aryl chloroethylureas inhibiting cell cycle progression in G0/G1 phase and thioredoxin-1 nuclear translocation” (2008) are described below.

As a reminder, the GI50 is the concentration giving 50% growth inhibition. High values mean lower sensitivity of the cells, low ones greater sensitivity of the cells.

In experiment [1] the test system is HT-29. Nature of the experiment: Antiproliferative activity against human HT29 cells. In kind it is functional.
For experiment [2], the system named is M21. As to the kind of experiment: Antiproliferative activity against human M21 cells. Type of experiment: functional.
Experiment [3] has as its system MCF7. As to the kind of experiment: Antiproliferative activity against human MCF7 cells. Type of experiment: functional.
Experiment [4] relates to MCF7. Nature of the experiment: Cell cycle arrest in human MCF7 cells assessed as increase in G0/G1 phase accumulation at 50 uM after 16 hrs by FACS analysis. Type of experiment: functional. For orientation: Flow cytometry measures light scatter and fluorescence of single cells or particles in a stream.
Experiment [5] deals with MCF7. As to the kind of experiment: Cell cycle arrest in human MCF7 cells assessed as increase in S phase accumulation at 50 uM after 16 hrs by FACS analysis. Type of experiment: functional.
Experiment [6] has as its system MCF7. Nature of the experiment: Cell cycle arrest in human MCF7 cells assessed as increase in G2/M phase accumulation at 50 uM after 16 hrs by FACS analysis. Type of experiment: functional.
Experiment [7] has as its system M21. As to the kind of experiment: Effect on thioredoxin-1 nuclear translocation in human M21 cells at 50 uM by immunocytochemistry analysis. In kind it is functional, cell-based.
For experiment [8], the system named is MCF7. Nature of the experiment: Cell cycle arrest in human MCF7 cells assessed as increase in G0/G1 phase accumulation at 25 uM after 16 hrs by FACS analysis. Type of experiment: functional.
Experiment [9] deals with MCF7. Nature of the experiment: Cell cycle arrest in human MCF7 cells assessed as increase in S phase accumulation at 25 uM after 16 hrs by FACS analysis. In kind it is functional.
Experiment [10] concerns MCF7. As to the kind of experiment: Cell cycle arrest in human MCF7 cells assessed as increase in G2/M phase accumulation at 25 uM after 16 hrs by FACS analysis. In kind it is functional.
Experiment [11] has as its system M21. As to the kind of experiment: Effect on thioredoxin-1 nuclear translocation in human M21 cells at 25 uM by immunocytochemistry analysis. In kind it is functional, cell-based.
Experiment [12] relates to M21. As to the kind of experiment: Effect on thioredoxin-1 nuclear translocation in human M21 cells at 25 uM after 24 hrs by Western blot analysis. Type of experiment: functional, cell-based. On the technique in general: In western blotting, separated proteins are transferred to a membrane and probed.
Experiment [13] has as its system M21. As to the kind of experiment: Effect on thioredoxin-1 nuclear translocation in human M21 cells at 30 uM after 24 hrs by Western blot analysis. Type of experiment: functional, cell-based.
Experiment [14] relates to MCF7. As to the kind of experiment: Cell cycle arrest in human MCF7 cells assessed as increase in G0/G1 phase accumulation at 0.1 uM after 16 hrs by FACS analysis. In kind it is functional.
Experiment [15] has as its system MCF7. As to the kind of experiment: Cell cycle arrest in human MCF7 cells assessed as increase in S phase accumulation at 0.1 uM after 16 hrs by FACS analysis. Type of experiment: functional.
In experiment [16] the test system is MCF7. Nature of the experiment: Cell cycle arrest in human MCF7 cells assessed as increase in G2/M phase accumulation at 0.1 uM after 16 hrs by FACS analysis. In kind it is functional.
The test system of experiment [17] is MCF7. Nature of the experiment: Cell cycle arrest in human MCF7 cells assessed as increase in G0/G1 phase accumulation at 1 time GI50 after 25 hrs by flow cytometry. In kind it is functional, cell-based.
In experiment [18] the test system is MCF7. As to the kind of experiment: Cell cycle arrest in human MCF7 cells assessed as increase in G0/G1 phase accumulation at 2 times GI50 after 25 hrs by flow cytometry. Type of experiment: functional, cell-based.
The subject of experiment [19] is MCF7. Nature of the experiment: Cell cycle arrest in human MCF7 cells assessed as increase in G0/G1 phase accumulation at 4 times GI50 after 25 hrs by flow cytometry. In kind it is functional, cell-based.
Experiment [20] has as its system M21. As to the kind of experiment: Effect on thioredoxin-1 nuclear translocation in human M21 cells at 50 uM after 24 hrs by Western blot analysis. In kind it is functional, cell-based.
Experiment [21] concerns MCF7. As to the kind of experiment: Cell cycle arrest in human MCF7 cells assessed as increase in G2/M phase accumulation at 1 time GI50 after 25 hrs by flow cytometry. Type of experiment: functional, cell-based.
Experiment [22] relates to MCF7. Nature of the experiment: Cell cycle arrest in human MCF7 cells assessed as increase in G2/M phase accumulation at 2 times GI50 after 25 hrs by flow cytometry. In kind it is functional, cell-based.
In experiment [23] the test system is MCF7. Nature of the experiment: Cell cycle arrest in human MCF7 cells assessed as increase in G2/M phase accumulation at 4 times GI50 after 25 hrs by flow cytometry. Type of experiment: functional, cell-based.
Experiment [24] relates to HT-29. Nature of the experiment: Antiproliferative activity against human HT29 cells at 100 uM. In kind it is functional, cell-based.
Experiment [25] has as its system M21. As to the kind of experiment: Antiproliferative activity against human M21 cells at 100 uM. Type of experiment: functional, cell-based.
For experiment [26], the system named is MCF7. Nature of the experiment: Antiproliferative activity against human MCF7 cells at 100 uM. In kind it is functional, cell-based.

SMILES strings stand for the structures. The source made the active and inactive calls. The calls are words filed in the database; no cut-off is given here.

Take `O=C(NCCCl)Nc1cccc(OC2CCCC2)c1`: the GI50 with HT-29 [1] was 9.9 µM; in the experiment with M21 [2], 22 µM; in the experiment on MCF7 [3] it was 35 µM. The Activity is 64% in the experiment with MCF7 [4], 24% in the experiment on MCF7 [5] and 12% in the experiment on MCF7 [6]. Besides, the result with M21 [7] was Active.
On to `O=C(NCCCl)Nc1cccc(Oc2ccccc2)c1`, for which the GI50 with HT-29 [1] turned out to be 5.6 µM; in the experiment on M21 [2] it was 16 µM; with MCF7 [3], 24 µM. In addition, the Activity with MCF7 [4] is listed as 44%; in the experiment with MCF7 [5], 26%; in the experiment with MCF7 [6] it was 30%. Moreover, the outcome in the experiment with M21 [7] was inactive.
As to `O=C(NCCCl)Nc1ccc(I)cc1`, the Activity in the experiment with MCF7 [8] was found to be 25%; with MCF7 [9], 33%; in the experiment with MCF7 [10], 42%. The result in the experiment with M21 [11] was Active.
In the case of `O=C(NCCCl)Nc1ccc(OC2CCCC2)cc1`, the GI50 with HT-29 [1] came out at 31 µM; in the experiment on M21 [2], 38 µM; with MCF7 [3] it was 49 µM. The results for the Activity in the experiment on MCF7 [4], with MCF7 [5] and in the experiment on MCF7 [6] were 72%, 19% and 9%, respectively. For the same compound, the result in the experiment on M21 [7] was Active.
For `CC(C)(C)c1ccc(NC(=O)NCCCl)cc1`, the results for the Activity in the experiment with MCF7 [8], in the experiment on MCF7 [9] and in the experiment with MCF7 [10] were 17%, 24% and 58%, respectively. Moreover, the outcome in the experiment with M21 [12] and in the experiment with M21 [13] was inactive.
With `O=C(NCCCl)Nc1ccc(Oc2ccccc2)cc1`, the GI50 in the experiment on HT-29 [1] came to 2.4 µM; in the experiment on M21 [2] it was 5.2 µM; with MCF7 [3] it was 9.1 µM. Moreover, the results for the Activity in the experiment on MCF7 [8], with MCF7 [9] and in the experiment with MCF7 [10] were 15%, 20% and 65%, respectively. Moreover, in the experiment with M21 [11], the result was inactive.
On to `O=C(NCCCl)NC1c2ccccc2-c2ccccc21`, for which the GI50 amounted to 19 µM with HT-29 [1], 27 µM in the experiment on M21 [2] and 22 µM with MCF7 [3]. In addition, the figures for the Activity in the experiment on MCF7 [4], in the experiment on MCF7 [5] and in the experiment on MCF7 [6] were 63%, 29% and 8%, respectively. In the experiment on M21 [7], the outcome was Active.
With `O=C(NCCCl)Nc1ccc(OC2CCCCCC2)cc1`, the GI50 in the experiment with HT-29 [1] amounted to 12.5 µM; with M21 [2] it was 18 µM; with MCF7 [3] it was 19 µM. In addition, the results for the Activity with MCF7 [4], with MCF7 [5] and in the experiment on MCF7 [6] were 75%, 19% and 6%, respectively. The outcome in the experiment with M21 [7] was Active.
As for `O=C(NCCCl)Nc1cccc(OC2CCCCC2)c1`, the GI50 worked out at 7.9 µM in the experiment with HT-29 [1], 20 µM in the experiment with M21 [2] and 25 µM with MCF7 [3]. The Activity is given as 59% in the experiment with MCF7 [4], 33% in the experiment on MCF7 [5] and 8% in the experiment with MCF7 [6]. In the experiment on M21 [7], the outcome was Active.
As for `CC(=O)O[C@H]1C(=O)[C@@]2(C)[C@H]([C@H](OC(=O)c3ccccc3)[C@]3(O)C[C@H](OC(=O)[C@H](O)[C@@H](NC(=O)c4ccccc4)c4ccccc4)C(C)=C1C3(C)C)[C@]1(OC(C)=O)CO[C@@H]1C[C@@H]2O` [PACLITAXEL], the Activity was 9% in the experiment on MCF7 [14], 11% with MCF7 [15] and 80% with MCF7 [16].
For the compound `O=C(NCCCl)Nc1ccc(C2CCCCC2)cc1`, the GI50 stood at 12.6 µM in the experiment on HT-29 [1], 21 µM with M21 [2] and 21 µM with MCF7 [3]. In addition, the Activity in the experiment on MCF7 [4] is 71%; in the experiment with MCF7 [5], 16%; in the experiment on MCF7 [6], 13%. The result in the experiment with MCF7 [17], in the experiment on MCF7 [18], in the experiment on MCF7 [19], in the experiment with M21 [7], in the experiment on M21 [20] and in the experiment on M21 [13] was Active.
As to `COc1cc2c(c(OC)c1OC)-c1ccc(OC)c(=O)cc1[C@@H](NC(C)=O)CC2` [COLCHICINE], the Activity amounted to 19% with MCF7 [14], 19% in the experiment on MCF7 [15] and 62% in the experiment with MCF7 [16].
As to `CCC(C)SSc1ncc[nH]1` (stereo not drawn) [PX-12], the figures for the GI50 with HT-29 [1], in the experiment with M21 [2] and in the experiment on MCF7 [3] were 25 µM, 8.3 µM and 8.3 µM, respectively. The Activity was found to be 29% in the experiment with MCF7 [8], 13% in the experiment on MCF7 [9] and 58% in the experiment with MCF7 [10].
With `O=C(NCCCl)Nc1ccc(OC2CCCCC2)cc1`, the GI50 with HT-29 [1] was determined as 23 µM; with M21 [2], 36 µM; in the experiment with MCF7 [3] it was 45 µM. The figures for the Activity in the experiment with MCF7 [4], in the experiment on MCF7 [5] and in the experiment with MCF7 [6] were 57%, 29% and 14%, respectively. In addition, the result with M21 [7] was Active.
Consider `O=C(NCCCl)Nc1ccc2c(c1)CCC2`, for which the figures for the GI50 in the experiment with HT-29 [1], in the experiment with M21 [2] and in the experiment on MCF7 [3] were 3.6 µM, 8 µM and 14.1 µM, respectively. Besides, the results for the Activity in the experiment on MCF7 [8], in the experiment with MCF7 [9] and in the experiment on MCF7 [10] were 31%, 29% and 40%, respectively. For the same compound, the result with MCF7 [21], in the experiment on MCF7 [22] and in the experiment with MCF7 [23] was Active.
On to `O=C(NCCCl)Nc1cccc(OC2CCCCCC2)c1`, for which the GI50 was 10.7 µM in the experiment with HT-29 [1], 20 µM in the experiment with M21 [2] and 21 µM in the experiment with MCF7 [3]. Moreover, the Activity in the experiment with MCF7 [4] was determined as 72%; in the experiment on MCF7 [5], 22%; in the experiment on MCF7 [6], 6%. For the same compound, in the experiment on M21 [7], the outcome was Active.
Turning to `O=C(NCCCl)Nc1ccc2ccccc2c1`, the values for the GI50 with HT-29 [1], in the experiment with M21 [2] and in the experiment with MCF7 [3] were 1.9 µM, 4.1 µM and 5.6 µM, respectively. Further, the Activity in the experiment on MCF7 [4] amounted to 17%; in the experiment on MCF7 [5], 38%; in the experiment on MCF7 [6], 45%. Besides, the outcome in the experiment on M21 [7] was Active.
On to `CCNC(=O)Nc1ccc(C2CCCCC2)cc1`, for which the result with HT-29 [24], in the experiment with M21 [25] and in the experiment with MCF7 [26] was inactive. In addition, the results for the Activity in the experiment with MCF7 [4], in the experiment with MCF7 [5] and in the experiment on MCF7 [6] were 55%, 23% and 22%, respectively.
